Among the data in ChEMBL document CHEMBL2429798, “Antioxidant effectiveness generated by one or two phenolic hydroxyl groups in coumarin-substituted dihydropyrazoles” (Eur J Med Chem, 2013) are inhibition, K and TIME values, retold here.

Activity calls are given as the source filed them. The calls are words filed in the database; no cut-off is given here.

Common to all, as to format: functional
A short description of assay [1]: Antioxidant activity assessed as inhibition of hydroxyl radical-induced oxidation of DNA at 0.2 mM after 30 mins by TBARS assay relative to control.
For assay [2], the system named is Radical scavenging activity. Description: Antioxidant activity assessed as DPPH radical scavenging activity at 10 uM. (In general: DPPH is a stable violet radical that fades when it is reduced.)
Assay [3] is described as follows: Antioxidant activity assessed as ABTS radical scavenging activity at 5 uM.
Assay [4] can be described thus: Antioxidant activity assessed as time required to inhibit AAPH-induced oxidation of DNA by TBARS assay.
Assay [5] can be described thus: Antioxidant activity assessed as galvinoxyl radical scavenging activity at 15 uM.
Assay [6] can be described thus: Antioxidant activity assessed as inhibition of Cu2+/GSH-induced oxidation of DNA at 0.2 mM measured every 30 mins by TBARS assay.
A short description of assay [7]: Antioxidant activity assessed as inhibition of AAPH-induced oxidation of DNA at 1 to 400 uM measured every 2 hrs by TBARS assay.

With `COc1cc(C2CC(c3cc4ccccc4oc3=O)=NN2c2ccccc2)ccc1O` (stereo not drawn), the inhibition in assay [1] stood at 53.9%. For the same compound, the K came out at 2540 M⁻¹ s⁻¹ in assay [2], 5990 M⁻¹ s⁻¹ in assay [3] and 6740 M⁻¹ s⁻¹ in assay [5]. Further, the TIME in assay [4] was found to be 0.0313 h.
The matching figures for `O=c1oc2ccccc2cc1C1=NN(c2ccccc2)C(c2cccc(O)c2)C1` (stereo not drawn): 66.4%, 700 M⁻¹ s⁻¹, 4310 M⁻¹ s⁻¹, 7230 M⁻¹ s⁻¹ and 0.016 h.
Taken in the same sequence, the figures for `O=c1oc2ccccc2cc1C1=NN(c2ccccc2)C(c2ccc(O)cc2)C1` (stereo not drawn) were 81.1%, 2440 M⁻¹ s⁻¹, 11200 M⁻¹ s⁻¹, 5820 M⁻¹ s⁻¹ and 0.0173 h.
Take `O=c1oc2ccccc2cc1C1=NN(c2ccccc2)C(c2ccc(O)cc2O)C1` (stereo not drawn): in assay [6], the inhibition entry is “Active”. In addition, the inhibition in assay [1] worked out at 35.5%. In addition, the values for the K in assay [2], in assay [3] and in assay [5] were 3720 M⁻¹ s⁻¹, 24600 M⁻¹ s⁻¹ and 7900 M⁻¹ s⁻¹, respectively. The TIME in assay [4] was 0.0343 h.
As to `COc1ccc(C2CC(c3cc4ccccc4oc3=O)=NN2c2ccccc2)cc1` (stereo not drawn), in assay [6], the inhibition entry is “Active”. The inhibition in assay [1] stood at 75.3%. For the same compound, the inhibition entry in assay [7] was “inactive”.
As to `O=c1oc2ccccc2cc1C1=NN(c2ccccc2)C(c2ccccc2O)C1` (stereo not drawn), the inhibition in assay [1] was 44.2%. Also, the K was found to be 540 M⁻¹ s⁻¹ in assay [2], 7440 M⁻¹ s⁻¹ in assay [3] and 4350 M⁻¹ s⁻¹ in assay [5]. Moreover, in assay [4], the TIME is 0.0192 h.
Take `O=c1oc2ccccc2cc1C1=NN(c2ccccc2)C(c2ccc(O)c(O)c2)C1` (stereo not drawn): the inhibition result in assay [6] is “Active”. For the same compound, the inhibition in assay [1] stood at 43.4%. For the same compound, the results for the K in assay [2], in assay [3] and in assay [5] were 8830 M⁻¹ s⁻¹, 12900 M⁻¹ s⁻¹ and 6920 M⁻¹ s⁻¹, respectively. In assay [4], the TIME was determined as 0.0327 h.
In the case of `O=c1oc2ccccc2cc1C1=NN(c2ccccc2)C(c2ccccc2)C1` (stereo not drawn), in assay [6], the inhibition entry is “Active”. The inhibition in assay [1] turned out to be 67.8%. Besides, the inhibition entry in assay [7] is “inactive”.

As a reminder, the inhibition is how much of the control response was suppressed.
